The assay deals with T1, Membrane primary amine oxidase (Homo sapiens, UniProt Q16853).
T1 sequence (Q16853 whole entry): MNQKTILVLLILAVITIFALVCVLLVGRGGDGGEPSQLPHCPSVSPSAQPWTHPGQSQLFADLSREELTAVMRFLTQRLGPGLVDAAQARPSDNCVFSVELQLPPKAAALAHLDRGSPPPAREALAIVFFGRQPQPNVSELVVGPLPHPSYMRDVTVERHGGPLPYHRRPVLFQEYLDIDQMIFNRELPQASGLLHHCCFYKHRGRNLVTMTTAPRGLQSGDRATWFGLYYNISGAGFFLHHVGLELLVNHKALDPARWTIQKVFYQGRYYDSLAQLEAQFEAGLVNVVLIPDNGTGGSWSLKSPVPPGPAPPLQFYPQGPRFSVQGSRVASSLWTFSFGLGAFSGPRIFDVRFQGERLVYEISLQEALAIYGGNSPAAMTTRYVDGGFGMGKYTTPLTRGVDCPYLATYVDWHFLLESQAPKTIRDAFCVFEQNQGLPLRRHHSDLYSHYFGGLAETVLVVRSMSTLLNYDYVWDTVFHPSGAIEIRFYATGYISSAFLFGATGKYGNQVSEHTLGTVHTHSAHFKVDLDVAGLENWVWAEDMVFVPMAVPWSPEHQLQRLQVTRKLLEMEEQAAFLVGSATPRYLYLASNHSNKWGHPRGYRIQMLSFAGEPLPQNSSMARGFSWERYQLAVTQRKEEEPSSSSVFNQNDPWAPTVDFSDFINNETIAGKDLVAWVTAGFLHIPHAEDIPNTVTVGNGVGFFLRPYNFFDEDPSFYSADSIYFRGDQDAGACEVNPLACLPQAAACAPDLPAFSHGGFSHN
Briefly: Biological Assay. Here is the method:
All primary assays were performed at RT. with purified recombinantly expressed human SSAO. […] In addition, secondary- and selectivity assays were performed using SSAO prepared from various tissues or purified rat recombinant SSAO. The enzyme activity was assayed with benzylamine as substrate by measuring either benzaldehyde production, using 14C-labeled substrate, or by utilizing the production of hydrogen peroxide in a horseradish peroxidase (HRP) coupled reaction. Briefly, test compounds were dissolved in dimethyl sulfoxide (DMSO) to a concentration of 10 mM. Dose-response measurements were assayed by either creating 1:10 serial dilutions in DMSO to produce a 7 point curve or by making 1:3 serial dilutions in DMSO to produce 11 point curves.

As usually defined, the IC50 is the point on the concentration scale where inhibition reaches its midpoint.

Turning to `Cc1cc(N)ncc1-c1cc2ccncc2n1-c1ccc(Cl)cc1` [5-[1-(4-Chlorophenyl)-1H-pyrrolo[2,3-c]pyridin-2-yl]-4-methylpyridin-2-amine; bis(trifluoroacetic acid)], the IC50 result is “in the range around 125 nM”.

(Values after BindingDB's records for patent US10428066 (PROXIMAGEN, LLC, 2019).)
